For assay [1], the target named is α1-adrenoceptor (3H-prazosin binding sites). In words: displacement of 3H-prazosin from rat cerebral cortical (brain) membranes. The following applies: for -logIC50: 3H-prazosin displacement, rat cerebral cortical membranes. As to the method: IC50 values and apparent Ki values were determined as in Table 1.
(§1) Rat brain cortices were homogenized in approximately 30 volumes/wet weight of 50 mM Tris buffer, pH 7.4, containing 10 mM MgCl2 by use of a Polytron (setting 6 for 10 seconds). It should be noted that this buffer was used throughout the experimental procedures. The homogenate was centrifuged at 48,000×g for 10 minutes in a Sorvall RC-5B centrifuge. The resulting pellet was resuspended in buffer by use of a Polytron and recentrifuged. This process was repeated and the pellet was resuspended in approximately 200 volumes for affinity studies or 20 volumes for irreversibility experiments.
Specific binding was defined as the difference between total binding (measured in the absence of any ligand) and non-specific binding (measured in the presence of 10 microM phentolamine). Duplicate tubes were used for each condition. Reaction tubes were incubated for 30 minutes at 30° C., then diluted to 5 ml with ice cold buffer, and filtered under reduced pressure through Whatman GF/C glass fiber filters. The reaction tubes and filters were washed three additional times with buffer.
In general terms: Loss of bound radioactivity is the signal in a displacement assay; it reports binding, not function.

In assay [2] the test system is BHT 933, alpha2-adrenergic pressor response. In words: diastolic blood pressure response to BHT 933 in anesthetized rats. The class given is in vivo, rat. Particulars: i.v., prazosin 0.11 mg/kg or compound 47 0.09 mg/kg, 15 min. How it is done:
(§2) Male rats were anesthetized, cannulated, and treated with hexamethonium bromide to block ganglionic effect, and their basal response in blood pressure to pressor compounds was measured. […] After fifteen minutes, the response in blood pressure to pressor compounds was re-evaluated.

Assay [3] deals with hypertensive patients; normotensive and hypertensive animals. The following applies: human, in vivo; cited from earlier work.
Assay [4] concerns α1-adrenoceptor (3H-prazosin binding sites). The assay can be described thus: irreversibility experiment: membranes preincubated with compound, washed, assayed for saturation of 3H-prazosin binding. Also on record: species or system rat. Particulars: for irreversible blockade / effect on 3H-prazosin binding sites (in words): membranes, preincubation and washing.
The subject of assay [5] is phenylephrine, alpha1-adrenergic pressor response. The assay can be described thus: diastolic blood pressure response to phenylephrine in anesthetized rats. Type of assay: in vivo, rat. Particulars: i.v., prazosin 0.11 mg/kg or compound 47 0.09 mg/kg, 15 min. How it is done:
as §2

The test system of assay [6] is alpha1-adrenoceptors and other receptors. The following applies: prior art; cited from earlier work.
The subject of assay [7] is catecholamine-activated efflux of calcium ions, rat parotid cells. The assay can be described thus: calcium efflux activated by catecholamines in dispersed parotid cells. The class given is cell-based.
The test system of assay [8] is cholinergic (muscarinic) activated efflux of calcium ions, rat parotid cells. In words: calcium efflux activated by cholinergic (muscarinic) system in dispersed parotid cells. The class given is cell-based.
The test system of assay [9] is α1-adrenoceptor (3H-prazosin binding sites). The assay can be described thus: intact animal study: intraperitoneal injection, membranes prepared 16 hours later and assayed for saturation of 3H-prazosin binding. The class given is in vivo, rat. How it is done:
Sixteen hours later, the animals were sacrificed, membranes were prepared from various tissues, and assayed for saturation of ^3 -prazosin binding.
To test its efficacy in vivo. compound No. 47 was injected intraperitoneally at a dose of 10 mg/kg into rats. In membranes prepared from brains and hearts of animals 16 hours after injection of compound 47, a 32-44% decrease in Bmax was noted, compared to animals injected with vehicle only. […]

The target in assay [10] is T1, α1-adrenoceptor (3H-prazosin binding sites) (Rattus norvegicus, UniProt P15823).
T1 construct: Rat brain cortices were homogenized; from tissue; host or cells: rat brain cortex membranes; for some results heart ventricle, kidney cortex and spleen membranes
T1 sequence (P15823 1-515): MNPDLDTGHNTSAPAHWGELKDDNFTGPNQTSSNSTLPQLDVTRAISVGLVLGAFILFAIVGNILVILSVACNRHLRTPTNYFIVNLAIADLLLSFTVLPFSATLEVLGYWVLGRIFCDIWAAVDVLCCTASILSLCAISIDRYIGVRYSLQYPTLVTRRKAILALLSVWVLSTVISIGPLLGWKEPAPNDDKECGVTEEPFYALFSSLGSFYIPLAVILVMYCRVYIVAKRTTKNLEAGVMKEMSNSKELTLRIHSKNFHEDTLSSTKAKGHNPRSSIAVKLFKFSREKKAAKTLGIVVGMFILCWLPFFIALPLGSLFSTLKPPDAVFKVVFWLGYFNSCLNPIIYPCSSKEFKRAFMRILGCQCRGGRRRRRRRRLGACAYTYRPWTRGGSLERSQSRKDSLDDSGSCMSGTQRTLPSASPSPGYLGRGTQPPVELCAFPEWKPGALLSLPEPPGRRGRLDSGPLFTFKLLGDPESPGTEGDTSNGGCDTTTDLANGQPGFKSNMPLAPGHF
The assay can be described thus: irreversibility experiment: membranes preincubated with compound, washed, assayed for saturation of 3H-prazosin binding. The following applies: spleen membranes, FIG. 3; statistically insignificant.

Assay [11] has as its system alpha2-adrenoceptors (3H-yohimbine binding sites). The assay can be described thus: irreversibility experiment: preincubation and washing of brain membranes, then 3H-yohimbine binding. Also on record: species or system rat. The following applies: preincubated and washed. How it is done:
(§3) FIG. 5 - In vitro blockage of adrenergic binding sites in rat brain membranes by compound No. b 47 Membranes were preincubated without 0---0, or with 0---0 1×10^-7 M of compound No. 47 and processed as described in the Methods. Membranes were assayed for ^3 -prazosin binding and either ^3 -DHA or ^3 -yohimbine binding. The data are the averages of two separate experiments.
(§4) Aliquots of a suspension of membranes (5 ml), prepared as described above, were incubated with either the addition of only buffer (control) or a solution of the tested compound at various concentrations ranging from 1×10^-10 to 1×10^-5 for about 60 minutes at about 30° C. The suspensions were then diluted to approximately 40 mL with buffer, and incubated a further 10 minutes on ice. The membranes were then washed by a series of four centrifugations and resuspensions before they were finally resuspended in approximately 50 mL buffer for assay of saturation of ^3 -prazosin binding.

For assay [12], the target named is alpha2-adrenoreceptors (3H-yohimbine binding sites). The assay can be described thus: displacement of 3H-yohimbine from rat brain membranes. As to the method: (§5) FIG. 1 - Affinity of compound No. 47 at adrenergic binding sites on brain membranes. Membranes from rat brain cortex were prepared and the displacement of either ^3 H-prazosin 0---0, ^3 H-yohimbine Δ---Δ or ^3 H-DHA --- by compound No. 47 was measured. IC50 values and apparent Ki values were determined as in Table 1. The data in the figure are from a representative experiment which was repeated. […] The results are the averages of two separate experiments.
as §1

Assay [13] concerns beta-adrenoceptors (3H-DHA binding sites). In words: irreversibility experiment: preincubation and washing of brain membranes, then 3H-DHA binding. Further details: species or system rat. Particulars: preincubated and washed. As to the method:
as §3, §4

Assay [14] addresses T2, beta-adrenoceptors (3H-DHA binding sites) (Rattus norvegicus, UniProt P18090).
T2 construct: Membranes from rat brain cortex were prepared; from tissue; host or cells: rat brain cortex membranes
The assay can be described thus: displacement of 3H-DHA from rat brain membranes. As to the method:
as §5, §1

In assay [15] the test system is norepinephrine-induced contraction of aorta rings. In words: contraction of rabbit aorta rings caused by norepinephrine. The following applies: 10^-6 M, thirty minutes exposure. As to the method: Rings from aortas of rabbits were prepared using standard procedures, the rings were characterized, and the effects of compound 47 on contraction caused by norepinephrine were characterized.

“Also recorded” adds a separate entry of the source. Where two headings read alike, the source gives them in different places.

T2 sequence (P18090 whole entry): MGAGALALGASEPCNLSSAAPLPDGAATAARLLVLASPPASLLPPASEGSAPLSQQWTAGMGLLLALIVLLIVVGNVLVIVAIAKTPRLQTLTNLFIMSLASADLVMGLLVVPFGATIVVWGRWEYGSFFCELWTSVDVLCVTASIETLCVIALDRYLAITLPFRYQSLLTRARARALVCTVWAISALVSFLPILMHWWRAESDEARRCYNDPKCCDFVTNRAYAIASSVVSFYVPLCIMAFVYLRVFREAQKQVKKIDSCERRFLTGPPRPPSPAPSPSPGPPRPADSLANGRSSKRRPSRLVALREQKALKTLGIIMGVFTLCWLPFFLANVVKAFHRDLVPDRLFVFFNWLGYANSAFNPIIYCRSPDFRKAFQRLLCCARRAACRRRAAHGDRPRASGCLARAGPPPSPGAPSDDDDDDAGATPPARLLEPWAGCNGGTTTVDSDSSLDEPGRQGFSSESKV

`COc1cc2nc(N3CCN(C(=O)c4ccco4)CC3)nc(N)c2cc1OC` [Compound 1, 2-(4-(2-furoyl)-piperazine-1-yl)-4-amino-6,7-dimethoxy-quinazoline, reference compound]: the “-logIC50” value in assay [1] is recorded as 9.79. Also, the “effect on blood pressure response to BHT 933” value in assay [2] was “a higher concentration of pressor compounds was required to obtain increases in blood pressure”. For the same compound, the “lowering of blood pressure” value in assay [3] was “lower blood pressure in hypertensive patients and in normotensive and hypertensive animals”. Moreover, the “irreversible blockade / effect on 3H-prazosin binding sites (in words)” value was “prevented the decrease in binding sites caused by compound 47 alone; also recorded: had no effect on ^3 -prazosin binding” in assay [4] (listed as Prazosin) and “Washing the prazosin from the membranes restored the number of alpha1 -adrenoceptors” in assay [4] (listed as prazosin). Besides, the “effect on blood pressure response to phenylephrine” value in assay [5] was “a higher concentration of pressor compounds was required to obtain increases in blood pressure”. In assay [6], the “receptor specificity (in words)” value is recorded as “preferential affinity for postysynaptic alpha1 -adrenoreceptors”.

As to `COc1cc2nc(N3CCN(C(=O)C4=CC5C=CC4CC5)CC3)nc(N)c2cc1OC` (stereo not drawn) [Compound 47, 4-amino-2(4-bicyclo[2.2.2]octa-2,5-diene-2-carboxypiperazin-1-yl)-6,7-dimethoxyquinazoline], the “inhibition of catecholamine-activated calcium efflux” value in assay [7] is listed as “potently inhibited the efflux of calcium ions”. For the same compound, the “-logIC50” value in [1] is given as 7.99. The Ki in [1] (FIG. 1, rat brain cortex membranes, read-out: Apparent Ki at 3H-prazosin binding sites) was 3.44 nM; in assay [12] (FIG. 1, rat brain cortex membranes, read-out: Apparent Ki at 3H-yohimbine binding sites) it was 884 nM; in assay [14] (FIG. 1, rat brain cortex membranes, read-out: Apparent Ki at 3H-DHA binding sites), 5910 nM. The “affinity to alpha1-adrenoceptors (in words)” value in assay [1] (discussion of Table 1) was “excellent affinity; also recorded: apparent nanomolar potency”. Also, the “effect on muscarinic-activated calcium efflux” value in assay [8] is listed as “did not interfere in the efflux of calcium ions”. In addition, the “% Reduction in Bmax, brain” value in assay [9] (10 mg/kg i.p., brain) came out at 36%. Further, the dissociation constant (Kd) (as a rule, a measure of binding affinity in units of concentration) came to 0.292 ± 0.045 nM in assay [9] (10 mg/kg i.p., brain, control 0.317 ± 0.071, read-out: Kd, experimental, brain) and 0.255 ± 0.072 nM in [9] (10 mg/kg i.p., heart, control 0.150 ± 0.019, read-out: Kd, experimental, heart). In [9] (10 mg/kg i.p., heart), the “% Reduction in Bmax, heart” value was found to be 43%. The “% Reduction in Bmax, kidney” value in [9] (10 mg/kg i.p., kidney) worked out at 21%. Besides, the “decrease in Bmax, brains and hearts” value in assay [9] (10 mg/kg i.p., vs vehicle) was 32-44%. Further, the “Kd of remaining receptors after i.p. injection (in words)” value in [9] (i.p.) is “a significant increase in the Kd of the remaining receptors was seen”. Also, in [10], the “decrease in binding sites, spleen membranes” value came out at 18%. In addition, the “preincubation time to maximum blockade” value in assay [4] (FIG. 6, 1×10^-8 M, preincubation 15 min to 3 hr) is reported as “about 45 minutes”. Further, the “Kd (KD) of remaining 3H-prazosin binding sites (in words)” value in assay [4] (after preincubation and washing) is “without a change in the affinity (KD) of the remaining sites; also recorded: Higher concentrations in the preincubation mixture increased the Kd of the remaining sites; also recorded: only decreased the concentration of ligand by 10- and 100-fold, respectively, at which the large Kd effects were noted; also recorded: the Kd of the remaining receptors increased when lower concentrations of added ligand were used in the diluted preincubation mixtures”. The “blockage of 3H-prazosin binding” value in [4] (brain membranes, 1 micromole of compound 47 in preincubation) is listed as “approximately 50%”. In addition, the “maximum blockade of 3H-prazosin binding sites” value in assay [4] (brain membranes, altered protocols) is reported as “no more than 50%”. Also, the “reduction of 3H-prazosin binding” value in assay [4] (brain membranes, preincubated with 10 nM, washed) was 50%. Besides, the “maximum blockade after double preincubation” value in [4] (brain membranes, two preincubations with 10 nM, FIG. 7) is no more than 50%. Further, the “blockade of binding sites, heart membranes” value in assay [4] (heart membranes, preincubated, FIG. 3) was 40-50%. Further, in assay [4] (kidney membranes, preincubated, FIG. 3), the “blockade of binding sites, kidney membranes” value was 40-50%. The “irreversible blockade / effect on 3H-prazosin binding sites (in words)” value is reported as “irreversible; also recorded: decreased the number of alpha1 -adrenoceptors permanently” in assay [4] and “Only approximately one half of the alpha1 -adrenoceptors could be eliminated in a clean manner” in assay [4] (listed as alkylated prazosin). Further, the “blockade of 3H-prazosin binding sites under altered protocols (in words)” value in [4] (preincubation time, ligand/receptor ratio, buffer, (-)epinephrine, double preincubation) is reported as “remained at this level even after three hours of preincubation; also recorded: No difference in blockade; also recorded: Increasing the preincubation time up to three hours did not increase the amount of blockade; also recorded: did not change the outcome of the results; also recorded: did not affect the amount of blockade; also recorded: did not lead to further blockade”. In addition, the “effect of preincubation on 3H-yohimbine binding (alpha2)” value is listed as “did not irreversibly block ^3 -yohimbine binding sites; also recorded: unaffected” in assay [11] and “did not introduce permanent change” in assay [11] (listed as alkylated prazosin). For the same compound, the “effect on blood pressure response to phenylephrine” value in assay [5] is reported as “counteracted only to phenylephrine”. Moreover, the “affinity at 3H-yohimbine binding sites relative to 3H-prazosin binding sites” value in [12] (brain membranes) was “over a hundred times lower”. The “displacement of 3H-yohimbine (in words)” value in [12] (brain membranes) is listed as “much weaker competitor”. In addition, the “effect of preincubation on 3H-DHA binding (beta)” value in [13] is reported as “unaffected”; in assay [13] (listed as alkylated prazosin), “did not introduce permanent change”. In assay [14] (brain membranes), the “displacement of 3H-DHA (in words)” value is listed as “much weaker competitor”. Also, the “persistence of effect on norepinephrine contraction of aorta rings” value in assay [15] was “could not be cancelled by 21 hours of washing at 4 °C”.

The record behind these values is patent publication US5110927A (The United States of America as represented by the …, priority 1987, dated 1992).
